From ChEMBL document CHEMBL1201862, “PubChem BioAssay data set” (2004)
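Compound exposure: 48 hours, 5 concentrations, 96-well plates. GI50 is the concentration that inhibits growth by half.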 Calls of active or inactive are those of the source. No stated cut-off is given here; in the data, active = GI50 up to about 1.1 µM and inactive = higher.

Columns and labels:
Test in all cases: NCI anticancer screen, dose series, 48 h
HT-29 = tested on: HT-29
SK-MEL-5 = tested on: SK-MEL-5
ACHN = tested on: ACHN
MCF7 = tested on: MCF7
HL-60 = tested on: HL-60
EKVX = tested on: EKVX
T47D = tested on: T47D
SNB-75 = tested on: SNB-75
A498 = tested on: A498
LOX IMVI = tested on: LOX IMVI
Hs-578T = tested on: Hs-578T
HCC 2998 = tested on: HCC 2998
Malme-3M = tested on: Malme-3M
UACC-257 = tested on: UACC-257
PC-3 = tested on: PC-3
HOP-92 = tested on: HOP-92
CCRF-CEM = tested on: CCRF-CEM
M14 = tested on: M14
KM12 = tested on: KM12
786-0 = tested on: 786-0
BT-549 = tested on: BT-549
SNB-19 = tested on: SNB-19
MDA-N = tested on: MDA-N
NCI-H23 = tested on: NCI-H23
NCI-H226 = tested on: NCI-H226
MDA-MB-435 = tested on: MDA-MB-435
HCT-116 = tested on: HCT-116
SR = tested on: SR
SF-295 = tested on: SF-295
SW-620 = tested on: SW-620
HOP-62 = tested on: HOP-62
MOLT-4 = tested on: MOLT-4
OVCAR-8 = tested on: OVCAR-8
U-251 = tested on: U-251
MDA-MB-231 = tested on: MDA-MB-231
SF-268 = tested on: SF-268
SK-MEL-28 = tested on: SK-MEL-28
SF-539 = tested on: SF-539
RPMI-8226 = tested on: RPMI-8226
OVCAR-5 = tested on: OVCAR-5
SN12C = tested on: SN12C
SK-OV-3 = tested on: SK-OV-3
SK-MEL-2 = tested on: SK-MEL-2
HCT-15 = tested on: HCT-15
DU-145 = tested on: DU-145
UACC-62 = tested on: UACC-62
OVCAR-3 = tested on: OVCAR-3
NCI-H522 = tested on: NCI-H522
COLO 205 = tested on: COLO 205
A549 = tested on: A549
UO-31 = tested on: UO-31
CAKI-1 = tested on: CAKI-1
NCI-H460 = tested on: NCI-H460
TK-10 = tested on: TK-10
NCI/ADR-RES = tested on: NCI/ADR-RES
IGROV-1 = tested on: IGROV-1
RXF 393 = tested on: RXF 393
K562 = tested on: K562
OVCAR-4 = tested on: OVCAR-4

O=C1c2cc(-c3ccccc3)cnc2S(=O)(=O)N1c1ccc(Br)cc1
GI50 (HT-29): > 100 µM (inactive)
GI50 (SK-MEL-5): 70 µM (inactive)
GI50 (ACHN): > 100 µM (inactive)
GI50 (MCF7): > 100 µM (inactive)
GI50 (HL-60): 18.9 µM (inactive)
GI50 (EKVX): > 100 µM (inactive)
GI50 (T47D): 37.7 µM (inactive)
GI50 (SNB-75): 25.1 µM (inactive)
GI50 (A498): > 100 µM (inactive)
GI50 (LOX IMVI): 41.1 µM (inactive)
GI50 (Hs-578T): 20 µM (inactive)
GI50 (HCC 2998): 17.8 µM (inactive)
GI50 (Malme-3M): 20.3 µM (inactive)
GI50 (UACC-257): > 100 µM (inactive)
GI50 (PC-3): 34.4 µM (inactive)
GI50 (HOP-92): 27.1 µM (inactive)
GI50 (CCRF-CEM): 24.9 µM (inactive)
GI50 (M14): 76.9 µM (inactive)
GI50 (KM12): 25.5 µM (inactive)
GI50 (786-0): 37.6 µM (inactive)
GI50 (BT-549): > 100 µM (inactive)
GI50 (SNB-19): 15.8 µM (inactive)
GI50 (MDA-N): > 100 µM (inactive)
GI50 (NCI-H23): 63.1 µM (inactive)
GI50 (NCI-H226): > 100 µM (inactive)
GI50 (MDA-MB-435): > 100 µM (inactive)
GI50 (HCT-116): 71.9 µM (inactive)
GI50 (SR): 10.3 µM (inactive)
GI50 (SF-295): 20 µM (inactive)
GI50 (SW-620): 81.8 µM (inactive)
GI50 (HOP-62): 16.8 µM (inactive)
GI50 (MOLT-4): 46.3 µM (inactive)
GI50 (OVCAR-8): 44 µM (inactive)
GI50 (U-251): 30.1 µM (inactive)
GI50 (MDA-MB-231): 52.2 µM (inactive)
GI50 (SF-268): 33.7 µM (inactive)
GI50 (SK-MEL-28): 90.8 µM (inactive)
GI50 (SF-539): 30.5 µM (inactive)
GI50 (RPMI-8226): 21.1 µM (inactive)
GI50 (OVCAR-5): 40.8 µM (inactive)
GI50 (SN12C): > 100 µM (inactive)
GI50 (SK-OV-3): 26.2 µM (inactive)
GI50 (SK-MEL-2): 96.2 µM (inactive)
GI50 (HCT-15): 34.7 µM
GI50 (DU-145): 58.3 µM (inactive)
GI50 (UACC-62): 32.8 µM (inactive)
GI50 (OVCAR-3): 47.1 µM (inactive)
GI50 (NCI-H522): 14.8 µM (inactive)
GI50 (COLO 205): > 100 µM (inactive)
GI50 (A549): 18.7 µM (inactive)
GI50 (UO-31): > 100 µM (inactive)
GI50 (CAKI-1): 40.4 µM (inactive)
GI50 (NCI-H460): 24.3 µM (inactive)
GI50 (TK-10): > 100 µM (inactive)
GI50 (NCI/ADR-RES): 83.6 µM (inactive)
GI50 (IGROV-1): 46.2 µM (inactive)

CC1=NN(c2ccccc2)C2(C1)C(Cl)C(=O)N2c1nc2ccccc2s1 (stereo unspecified)
GI50 (HT-29): 34.9 µM (inactive)
GI50 (SK-MEL-5): 20.8 µM (inactive)
GI50 (ACHN): 46.9 µM (inactive)
GI50 (MCF7): 43.9 µM (inactive)
GI50 (HL-60): 21.1 µM (inactive)
GI50 (EKVX): 30.6 µM (inactive)
GI50 (T47D): 31.5 µM (inactive)
GI50 (SNB-75): 80.5 µM (inactive)
GI50 (A498): 53 µM (inactive)
GI50 (LOX IMVI): 13.5 µM (inactive)
GI50 (Hs-578T): 50.5 µM (inactive)
GI50 (HCC 2998): 60.4 µM (inactive)
GI50 (RXF 393): 23.8 µM (inactive)
GI50 (Malme-3M): 42.2 µM (inactive)
GI50 (UACC-257): 80.2 µM (inactive)
GI50 (PC-3): 37.1 µM (inactive)
GI50 (K562): 33.6 µM (inactive)
GI50 (HOP-92): 73.6 µM (inactive)
GI50 (CCRF-CEM): 14.9 µM (inactive)
GI50 (M14): 33.2 µM (inactive)
GI50 (KM12): 49.5 µM (inactive)
GI50 (786-0): 31.9 µM (inactive)
GI50 (BT-549): 34.1 µM (inactive)
GI50 (SNB-19): 43 µM (inactive)
GI50 (MDA-N): 35.6 µM (inactive)
GI50 (NCI-H23): 24.2 µM (inactive)
GI50 (NCI-H226): 15.1 µM (inactive)
GI50 (MDA-MB-435): 40.6 µM (inactive)
GI50 (HCT-116): 21.5 µM (inactive)
GI50 (SR): 22.9 µM (inactive)
GI50 (SF-295): 28.8 µM (inactive)
GI50 (SW-620): 29.9 µM (inactive)
GI50 (HOP-62): 25.2 µM (inactive)
GI50 (MOLT-4): 20.7 µM (inactive)
GI50 (OVCAR-8): 36.1 µM (inactive)
GI50 (U-251): 26 µM (inactive)
GI50 (MDA-MB-231): 28.8 µM (inactive)
GI50 (SF-268): 29.9 µM (inactive)
GI50 (SK-MEL-28): 36.6 µM (inactive)
GI50 (RPMI-8226): 18.1 µM (inactive)
GI50 (OVCAR-5): 41.7 µM (inactive)
GI50 (SN12C): 23.5 µM (inactive)
GI50 (SK-OV-3): 32.1 µM (inactive)
GI50 (SK-MEL-2): 23.8 µM (inactive)
GI50 (OVCAR-4): 85.1 µM (inactive)
GI50 (HCT-15): 29.9 µM
GI50 (DU-145): 36.2 µM (inactive)
GI50 (UACC-62): 34.4 µM (inactive)
GI50 (OVCAR-3): 15.8 µM (inactive)
GI50 (NCI-H522): 21.6 µM (inactive)
GI50 (COLO 205): 27.3 µM (inactive)
GI50 (A549): 35.2 µM (inactive)
GI50 (UO-31): 26.6 µM (inactive)
GI50 (CAKI-1): 66.7 µM (inactive)
GI50 (NCI-H460): 31 µM (inactive)
GI50 (TK-10): > 100 µM (inactive)
GI50 (NCI/ADR-RES): 23.9 µM (inactive)
GI50 (IGROV-1): 16.6 µM (inactive)

CC/C=C\C/C=C\C/C=C\CCCCCCCC(=O)OC(COC(=O)CCCCCCCCCCCCCCCCC)COC1OC(CO)C(O)C(O)C1O (stereo unspecified)
GI50 (HT-29): 22.8 µM (inactive)
GI50 (SK-MEL-5): > 25 µM (inactive)
GI50 (ACHN): > 25 µM (inactive)
GI50 (MCF7): > 25 µM (inactive)
GI50 (HL-60): > 25 µM (inactive)
GI50 (EKVX): 4.7 µM (inactive)
GI50 (T47D): > 25 µM (inactive)
GI50 (SNB-75): > 25 µM (inactive)
GI50 (A498): > 25 µM (inactive)
GI50 (LOX IMVI): > 25 µM (inactive)
GI50 (Hs-578T): 2.59 µM (inactive)
GI50 (HCC 2998): > 25 µM (inactive)
GI50 (RXF 393): > 25 µM (inactive)
GI50 (UACC-257): > 25 µM (inactive)
GI50 (PC-3): 22.8 µM (inactive)
GI50 (K562): 18.6 µM (inactive)
GI50 (HOP-92): > 25 µM (inactive)
GI50 (CCRF-CEM): > 25 µM (inactive)
GI50 (M14): > 25 µM (inactive)
GI50 (KM12): > 25 µM (inactive)
GI50 (786-0): > 25 µM (inactive)
GI50 (BT-549): > 25 µM (inactive)
GI50 (SNB-19): > 25 µM (inactive)
GI50 (MDA-N): > 25 µM (inactive)
GI50 (NCI-H23): > 25 µM (inactive)
GI50 (NCI-H226): > 25 µM (inactive)
GI50 (MDA-MB-435): > 25 µM (inactive)
GI50 (HCT-116): > 25 µM (inactive)
GI50 (SR): > 25 µM (inactive)
GI50 (SF-295): > 25 µM (inactive)
GI50 (SW-620): > 25 µM (inactive)
GI50 (HOP-62): > 25 µM (inactive)
GI50 (MOLT-4): > 25 µM (inactive)
GI50 (OVCAR-8): 15.9 µM (inactive)
GI50 (U-251): > 25 µM (inactive)
GI50 (MDA-MB-231): > 25 µM (inactive)
GI50 (SF-268): > 25 µM (inactive)
GI50 (SK-MEL-28): > 25 µM (inactive)
GI50 (RPMI-8226): 8.57 µM (inactive)
GI50 (OVCAR-5): > 25 µM (inactive)
GI50 (SN12C): > 25 µM (inactive)
GI50 (SK-OV-3): > 25 µM (inactive)
GI50 (SK-MEL-2): > 25 µM (inactive)
GI50 (OVCAR-4): > 25 µM (inactive)
GI50 (HCT-15): > 25 µM
GI50 (DU-145): > 25 µM (inactive)
GI50 (UACC-62): > 25 µM (inactive)
GI50 (OVCAR-3): 7.74 µM (inactive)
GI50 (NCI-H522): 9.53 µM (inactive)
GI50 (COLO 205): > 25 µM (inactive)
GI50 (A549): > 25 µM (inactive)
GI50 (UO-31): > 25 µM (inactive)
GI50 (CAKI-1): > 25 µM (inactive)
GI50 (NCI-H460): > 25 µM (inactive)
GI50 (TK-10): > 25 µM (inactive)
GI50 (NCI/ADR-RES): 23.6 µM (inactive)
GI50 (IGROV-1): 12.3 µM (inactive)
